In ChEMBL document CHEMBL1275481, “Mechanism and fitness costs of PR-39 resistance in Salmonella enterica serovar Typhimurium LT2” (2008):
≈ marks a conversion by molar mass, not a printed value. Calls of active or inactive are those of the source. No cut-off for these calls is given here.

How the values were obtained:
Salmonella typhimurium [1] = test: Antimicrobial activity against PR-39-resistant sbmA-deficient Salmonella enterica serovar Typhimurium LT2 DA12088 by Etest; type: functional
Salmonella typhimurium [2] = test: Antimicrobial activity against PR-39-resistant Salmonella enterica serovar Typhimurium LT2 DA6192 by Etest; type: functional
Salmonella typhimurium [3] = test: Antimicrobial activity against PR-39-resistant Salmonella enterica serovar Typhimurium LT2 DA10899 harboring Q179Stop mutant gene by Etest; type: functional
Salmonella typhimurium [4] = test: Antimicrobial activity against Salmonella enterica serovar Typhimurium LT2 DA10913 harboring sbmA C67Stop mutant gene by Etest; type: functional
Salmonella typhimurium [5] = test: Antimicrobial activity against sbmA-deficient Salmonella enterica serovar Typhimurium LT2 DA12088 by Etest; type: functional
Salmonella typhimurium [6] = test: Antimicrobial activity against Salmonella enterica serovar Typhimurium LT2 by Etest; type: functional, Salmonella enterica subsp. enterica serovar Typhimurium
Salmonella typhimurium [7] = test: Antimicrobial activity against Salmonella enterica serovar Typhimurium LT2 at 8 uM after 24 hrs; type: functional, organism-based; details: Salmonella enterica subsp. enterica serovar Typhimurium
Salmonella typhimurium [8] = test: Antimicrobial activity against Salmonella enterica serovar Typhimurium LT2 DA10899 harboring sbmA Q179Stop mutant gene by Etest; type: functional
Salmonella typhimurium [9] = test: Antimicrobial activity against Salmonella enterica serovar Typhimurium LT2 DA6192 by Etest; type: functional
Salmonella typhimurium [10] = test: Antimicrobial activity against sbmA-deficient Salmonella enterica serovar Typhimurium LT2 DA12088 at 16 uM after 24 hrs; type: functional, organism-based; details: Salmonella enterica subsp. enterica serovar Typhimurium str. LT2
Salmonella typhimurium [11] = test: Antimicrobial activity against sbmA-deficient Salmonella enterica serovar Typhimurium LT2 DA12088 assessed as log increase in survival rate at 16 uM after 24 hrs relative to wild type; type: functional
Salmonella typhimurium [12] = test: Antimicrobial activity against Salmonella enterica serovar Typhimurium LT2 DA10902 harboring deletion of bp 843-844 in sbmA gene by Etest; type: functional
Salmonella typhimurium [13] = test: Antimicrobial activity against Salmonella enterica serovar Typhimurium LT2 DA10907 harboring sbmA E287K mutant gene by Etest; type: functional
Salmonella typhimurium [14] = test: Antimicrobial activity against Salmonella enterica serovar Typhimurium LT2 DA10899 harboring Q179Stop mutant gene at 8 uM after 24 hrs; type: functional, organism-based; details: Salmonella enterica subsp. enterica serovar Typhimurium str. LT2
Salmonella typhimurium [15] = test: Antimicrobial activity against Salmonella enterica serovar Typhimurium LT2 DA10897 harboring sbmA W373Stop mutant gene by Etest; type: functional
Salmonella typhimurium [16] = test: Antimicrobial activity against Salmonella enterica serovar Typhimurium LT2 DA10898 harboring deletion of bp 967 in sbmA gene by Etest; type: functional
Salmonella typhimurium [17] = test: Antimicrobial activity against Salmonella enterica serovar Typhimurium LT2 DA10905 harboring sbmA L379P mutant gene by Etest; type: functional
Salmonella typhimurium [18] = test: Antimicrobial activity against Salmonella enterica serovar Typhimurium LT2 DA10896 harboring sbmA T375K mutant gene by Etest; type: functional
Salmonella typhimurium [19] = test: Antimicrobial activity against Salmonella enterica serovar Typhimurium LT2 DA10912 harboring sbmA Y326C mutant gene by Etest; type: functional
Salmonella typhimurium [20] = test: Antimicrobial activity against sbmA-deficient Salmonella enterica serovar Typhimurium LT2 DA12088 assessed as log increase in survival rate at 4 uM after 24 hrs relative to wild type; type: functional
Salmonella typhimurium [21] = test: Antimicrobial activity against Salmonella enterica serovar Typhimurium LT2 DA14344 harboring sbmA Q179Stop gene by Etest in presence of arabinose; type: functional
Salmonella typhimurium [22] = test: Antimicrobial activity against sbmA-deficient Salmonella enterica serovar Typhimurium LT2 DA13090 harboring sbmA gene by Etest in presence of arabinose; type: functional
Salmonella typhimurium [23] = test: Antimicrobial activity against sbmA-deficient Salmonella enterica serovar Typhimurium LT2 DA12088 assessed as log increase in survival rate at 8 uM after 24 hrs relative to wild type; type: functional
Salmonella typhimurium [24] = test: Antimicrobial activity against sbmA-deficient Salmonella enterica serovar Typhimurium LT2 DA12088 at 8 uM after 24 hrs; type: functional, organism-based; details: Salmonella enterica subsp. enterica serovar Typhimurium str. LT2
Salmonella typhimurium [25] = test: Antimicrobial activity against Salmonella enterica serovar Typhimurium LT2 DA10899 harboring Q179Stop mutant gene at 16 uM after 24 hrs; type: functional, organism-based; details: Salmonella enterica subsp. enterica serovar Typhimurium str. LT2
Salmonella typhimurium [26] = test: Antimicrobial activity against Salmonella enterica serovar Typhimurium LT2 DA13088 harboring sbmA gene by Etest in presence of arabinose; type: functional
Salmonella typhimurium [27] = test: Antimicrobial activity against Salmonella enterica serovar Typhimurium LT2 at 16 uM after 24 hrs; type: functional, organism-based; details: Salmonella enterica subsp. enterica serovar Typhimurium
Salmonella typhimurium [28] = test: Antimicrobial activity against Salmonella enterica serovar Typhimurium LT2 DA10914 harboring sbmA S251L mutant gene by Etest; type: functional
[29] = Salmonella enterica subsp. enterica serovar Typhimurium str. LT2

CC1(C)S[C@@H]2[C@H](NC(=O)[C@H](N)c3ccccc3)C(=O)N2[C@H]1C(=O)O [AMPICILLIN]
MIC (Salmonella typhimurium [1]): 0.75 µg/mL (≈ 2.15 µM) | MIC (Salmonella typhimurium [2]): 0.75 µg/mL (≈ 2.15 µM) | MIC (Salmonella typhimurium [3]): 0.75 µg/mL (≈ 2.15 µM)

CC[C@H](C)[C@H](NC(=O)[C@H](CCCCN)NC(=O)[C@H](CCC(=O)O)NC(=O)[C@H](CCCCN)NC(=O)[C@H](CO)NC(=O)[C@H](CCCCN)NC(=O)[C@H](CCCNC(=N)N)NC(=O)[C@H](Cc1ccccc1)NC(=O)[C@H](Cc1ccccc1)NC(=O)[C@H](CC(=O)O)NC(=O)CNC(=O)[C@H](CC(C)C)NC(=O)[C@@H](N)CC(C)C)C(=O)NCC(=O)N[C@@H](CCCCN)C(=O)N[C@@H](CCC(=O)O)C(=O)N[C@@H](Cc1ccccc1)C(=O)N[C@@H](CCCCN)C(=O)N[C@@H](CCCNC(=N)N)C(=O)N[C@H](C(=O)N[C@H](C(=O)N[C@@H](CCC(N)=O)C(=O)N[C@@H](CCCNC(=N)N)C(=O)N[C@H](C(=O)N[C@@H](CCCCN)C(=O)N[C@@H](CC(=O)O)C(=O)N[C@@H](Cc1ccccc1)C(=O)N[C@@H](CC(C)C)C(=O)N[C@@H](CCCNC(=N)N)C(=O)N[C@@H](CC(N)=O)C(=O)N[C@@H](CC(C)C)C(=O)N[C@H](C(=O)N1CCC[C@H]1C(=O)N[C@@H](CCCNC(=N)N)C(=O)N[C@H](C(=O)N[C@@H](CCC(=O)O)C(=O)N[C@@H](CO)C(=O)O)[C@@H](C)O)C(C)C)[C@@H](C)CC)C(C)C)[C@@H](C)CC [CATHELICIDIN]
MIC (Salmonella typhimurium [1]): 66 µg/mL (≈ 14.7 µM) | MIC (Salmonella typhimurium [2]): 66 µg/mL (≈ 14.7 µM) | MIC (Salmonella typhimurium [3]): 66 µg/mL (≈ 14.7 µM)

CO/N=C(\C(=O)N[C@@H]1C(=O)N2C(C(=O)[O-])=C(C[N+]3(C)CCCC3)CS[C@H]12)c1csc(N)n1 [CEFEPIME]
MIC (Salmonella typhimurium [1]): 0.064 µg/mL (≈ 0.133 µM) | MIC (Salmonella typhimurium [2]): 0.064 µg/mL (≈ 0.133 µM) | MIC (Salmonella typhimurium [3]): 0.064 µg/mL (≈ 0.133 µM)

COCC1=C(C(=O)O)N2C(=O)[C@@H](NC(=O)/C(=N\OC)c3csc(N)n3)[C@H]2SC1 [CEFPODOXIME]
MIC (Salmonella typhimurium [1]): 0.38 µg/mL (≈ 0.889 µM) | MIC (Salmonella typhimurium [2]): 0.38 µg/mL (≈ 0.889 µM) | MIC (Salmonella typhimurium [3]): 0.38 µg/mL (≈ 0.889 µM)

CO/N=C(\C(=O)N[C@@H]1C(=O)N2C(C(=O)O)=C(COC(N)=O)CS[C@H]12)c1ccco1 [CEFUROXIME]
MIC (Salmonella typhimurium [1]): 4 µg/mL (≈ 9.43 µM) | MIC (Salmonella typhimurium [2]): 4 µg/mL (≈ 9.43 µM) | MIC (Salmonella typhimurium [3]): 4 µg/mL (≈ 9.43 µM)

CC(=O)OCC1=C(C(=O)O)N2C(=O)[C@@H](NC(=O)Cc3cccs3)[C@H]2SC1 [CEPHALOTHIN]
MIC (Salmonella typhimurium [1]): 3 µg/mL (≈ 7.57 µM) | MIC (Salmonella typhimurium [2]): 3 µg/mL (≈ 7.57 µM) | MIC (Salmonella typhimurium [3]): 3 µg/mL (≈ 7.57 µM)

O=C(N[C@H](CO)[C@H](O)c1ccc([N+](=O)[O-])cc1)C(Cl)Cl [CHLORAMPHENICOL]
MIC (Salmonella typhimurium [1]): 4 µg/mL (≈ 12.4 µM) | MIC (Salmonella typhimurium [2]): 4 µg/mL (≈ 12.4 µM) | MIC (Salmonella typhimurium [3]): 4 µg/mL (≈ 12.4 µM)

O=C(O)c1cn(C2CC2)c2cc(N3CCNCC3)c(F)cc2c1=O [CIPROFLOXACIN]
MIC (Salmonella typhimurium [1]): 0.008 µg/mL (≈ 0.0241 µM) | MIC (Salmonella typhimurium [2]): 0.008 µg/mL (≈ 0.0241 µM) | MIC (Salmonella typhimurium [3]): 0.008 µg/mL (≈ 0.0241 µM)

NC[C@H]1O[C@H](O[C@H]2[C@H](O)[C@@H](O[C@H]3O[C@H](CO)[C@@H](O)[C@H](N)[C@H]3O)[C@H](N)C[C@@H]2N)[C@H](O)[C@@H](O)[C@@H]1O [KANAMYCIN]
MIC (Salmonella typhimurium [1]): 1.5 µg/mL (≈ 3.1 µM) | MIC (Salmonella typhimurium [2]): 1.5 µg/mL (≈ 3.1 µM) | MIC (Salmonella typhimurium [3]): 1.5 µg/mL (≈ 3.1 µM)

CCn1cc(C(=O)O)c(=O)c2ccc(C)nc21 [NALIDIXIC ACID]
MIC (Salmonella typhimurium [1]): 4 µg/mL (≈ 17.2 µM) | MIC (Salmonella typhimurium [2]): 4 µg/mL (≈ 17.2 µM) | MIC (Salmonella typhimurium [3]): 4 µg/mL (≈ 17.2 µM)

O=C1CN(/N=C/c2ccc([N+](=O)[O-])o2)C(=O)N1 [NITROFURANTOIN]
MIC (Salmonella typhimurium [1]): 8 µg/mL (≈ 33.6 µM) | MIC (Salmonella typhimurium [2]): 8 µg/mL (≈ 33.6 µM) | MIC (Salmonella typhimurium [3]): 8 µg/mL (≈ 33.6 µM)

CN[C@@H]1[C@H](O[C@H]2[C@H](O[C@H]3[C@H](O)[C@@H](O)[C@H](N=C(N)N)[C@@H](O)[C@@H]3N=C(N)N)O[C@@H](C)[C@]2(O)C=O)O[C@@H](CO)[C@H](O)[C@H]1O [STREPTOMYCIN]
MIC (Salmonella typhimurium [1]): 3 µg/mL (≈ 5.16 µM) | MIC (Salmonella typhimurium [2]): 3 µg/mL (≈ 5.16 µM) | MIC (Salmonella typhimurium [3]): 3 µg/mL (≈ 5.16 µM)

CN(C)[C@@H]1C(O)=C(C(N)=O)C(=O)[C@@]2(O)C(O)=C3C(=O)c4c(O)cccc4[C@@](C)(O)[C@H]3C[C@@H]12 [TETRACYCLINE]
MIC (Salmonella typhimurium [1]): 3 µg/mL (≈ 6.75 µM) | MIC (Salmonella typhimurium [2]): 3 µg/mL (≈ 6.75 µM) | MIC (Salmonella typhimurium [3]): 3 µg/mL (≈ 6.75 µM)

BLEOMYCIN
MIC (Salmonella typhimurium [1]; [29]): 1.8 µg/mL | MIC (Salmonella typhimurium [2]; [29]): 0.4 µg/mL | MIC (Salmonella typhimurium [3]; [29]): 1.8 µg/mL

COLISTIN
MIC (Salmonella typhimurium [1]; [29]): 0.5 µg/mL | MIC (Salmonella typhimurium [2]; [29]): 0.5 µg/mL | MIC (Salmonella typhimurium [3]; [29]): 0.5 µg/mL

H-GLLRKGGEKIGEKLKKIGQKIKNFFQKLVPQPEQ-OH
MIC (Salmonella typhimurium [1]): 32 µg/mL | MIC (Salmonella typhimurium [2]): 32 µg/mL | MIC (Salmonella typhimurium [3]): 32 µg/mL

H-GLVRKGGEKFGEKLRKIGQKIKEFFQKLALEIEQ-OH
MIC (Salmonella typhimurium [1]): 30 µg/mL | MIC (Salmonella typhimurium [2]): 23 µg/mL | MIC (Salmonella typhimurium [3]): 23 µg/mL

H-RRRPRPPYLPRPRPPPFFPPRLPPRIPPGFPPRFPPRFP-NH2
MIC (Salmonella typhimurium [4]): 7 µM | MIC (Salmonella typhimurium [5]): 6 µM | MIC (Salmonella typhimurium [6]): 3 µM | Activity (Salmonella typhimurium [7]): inactive | MIC (Salmonella typhimurium [8]): 6 µM | MIC (Salmonella typhimurium [9]): 2 µM | MIC (Salmonella typhimurium [1]): 28 µg/mL | Activity (Salmonella typhimurium [10]): inactive | FC (Salmonella typhimurium [11]): 4 | MIC (Salmonella typhimurium [12]): 7 µM | MIC (Salmonella typhimurium [13]): 7 µM | Activity (Salmonella typhimurium [14]): inactive | MIC (Salmonella typhimurium [2]): 8.5 µg/mL | MIC (Salmonella typhimurium [15]): 7 µM | MIC (Salmonella typhimurium [16]): 7 µM | MIC (Salmonella typhimurium [17]): 7 µM | MIC (Salmonella typhimurium [18]): 6 µM | MIC (Salmonella typhimurium [19]): 5 µM | MIC (Salmonella typhimurium [3]): 28 µg/mL | FC (Salmonella typhimurium [20]): 4 | MIC (Salmonella typhimurium [21]): 3 µM | MIC (Salmonella typhimurium [22]): 3 µM | FC (Salmonella typhimurium [23]): 4 | Activity (Salmonella typhimurium [24]): inactive | Activity (Salmonella typhimurium [25]): inactive | MIC (Salmonella typhimurium [26]): 1.5 µM | Activity (Salmonella typhimurium [27]): inactive | MIC (Salmonella typhimurium [28]): 7 µM
